In patent publication US20120232043A1, “LUBIPROSTONE FOR OBSTETRICAL OR GYNECOLOGICAL APPLICATIONS” (CEMAG, priority 2009, published 2012):

Test system: women requesting early pregnancy termination (<64 days of amenorrhea)
Experiment: Early pregnancy termination in women: oral mifepristone followed by oral lubiprostone
Assay type: in vivo
Conditions: twelve women, 200 mg mifepristone once orally, followed 24 hours later by oral lubiprostone 8 μg twice daily for 2 consecutive days
Protocol: Twelve women requesting early pregnancy termination (<64 days of amenorrhea) have received 200 mg mifepristone once, orally followed 24 hours later by the oral administration of lubiprostone (8 μg twice daily for 2 consecutive days). Efficacy rate (i.e. complete pregnancy termination, without need for surgical procedure) was […]. In one person, ovular fragments had to be removed at the uterine os with a forceps. Median bleeding time was 8 days. There was no specific adverse event except mild diarrhea in 3 subjects.

CCCCC(F)(F)[C@@]1(O)CC[C@H]2[C@@H](CC(=O)[C@@H]2CCCCCCC(=O)O)O1 [lubiprostone, 7-[(2R,4aR,5R,7aR)-2-(1,1-difluoropentyl)-2-hydroxy-6-oxo-3,4,4a,5,7,7a-hexahydrocyclopenta[b]pyran-5-yl]heptanoic acid]
Efficacy rate (i.e. complete pregnancy termination, without need for surgical procedure) (<64 days of amenorrhea): 97% | Adverse event: mild diarrhea (no other specific adverse event): 3 subjects | Median bleeding time: 8 days | Ovular fragments had to be removed at the uterine os with a forceps: one
